The values below come from ChEMBL document CHEMBL5346971, “Discovery of the First Irreversible HDAC6 Isoform Selective Inhibitor with Potent Anti-Multiple Myeloma Activity” (J Med Chem, 2023).

One data set relates to RPMI-8226. Briefly: Antiproliferative activity against human RPMI-8226 cells assessed as inhibition of cell proliferation incubated for 48 hrs by CCK8 assay. The data set is classed as functional, cell-based. The settings on record: RPMI-8226, 48 h. A general note: Formazan colour is commonly taken as a measure of viable cells.
A further data set has as its system U-266. Briefly: Antiproliferative activity against human U-266 cells assessed as inhibition of cell proliferation incubated for 48 hrs by CCK8 assay. The data set is classed as functional, cell-based. The settings on record: U-266, 48 h.
The next data set deals with MM1.S. The experiment in a line: Antiproliferative activity against human MM1.S cells assessed as inhibition of cell proliferation incubated for 48 hrs by CCK8 assay. The data set is classed as functional, cell-based.
The nature of data set [1]: Cytotoxicity against human L02 cells assessed as inhibition of cell proliferation incubated for 48 hrs by CCK8 assay. The data set is classed as toxicity, cell-based.
Data set [2] deals with T1, Protein deacetylase HDAC6 (Homo sapiens) (UniProt Q9UBN7).
T1 sequence (whole entry): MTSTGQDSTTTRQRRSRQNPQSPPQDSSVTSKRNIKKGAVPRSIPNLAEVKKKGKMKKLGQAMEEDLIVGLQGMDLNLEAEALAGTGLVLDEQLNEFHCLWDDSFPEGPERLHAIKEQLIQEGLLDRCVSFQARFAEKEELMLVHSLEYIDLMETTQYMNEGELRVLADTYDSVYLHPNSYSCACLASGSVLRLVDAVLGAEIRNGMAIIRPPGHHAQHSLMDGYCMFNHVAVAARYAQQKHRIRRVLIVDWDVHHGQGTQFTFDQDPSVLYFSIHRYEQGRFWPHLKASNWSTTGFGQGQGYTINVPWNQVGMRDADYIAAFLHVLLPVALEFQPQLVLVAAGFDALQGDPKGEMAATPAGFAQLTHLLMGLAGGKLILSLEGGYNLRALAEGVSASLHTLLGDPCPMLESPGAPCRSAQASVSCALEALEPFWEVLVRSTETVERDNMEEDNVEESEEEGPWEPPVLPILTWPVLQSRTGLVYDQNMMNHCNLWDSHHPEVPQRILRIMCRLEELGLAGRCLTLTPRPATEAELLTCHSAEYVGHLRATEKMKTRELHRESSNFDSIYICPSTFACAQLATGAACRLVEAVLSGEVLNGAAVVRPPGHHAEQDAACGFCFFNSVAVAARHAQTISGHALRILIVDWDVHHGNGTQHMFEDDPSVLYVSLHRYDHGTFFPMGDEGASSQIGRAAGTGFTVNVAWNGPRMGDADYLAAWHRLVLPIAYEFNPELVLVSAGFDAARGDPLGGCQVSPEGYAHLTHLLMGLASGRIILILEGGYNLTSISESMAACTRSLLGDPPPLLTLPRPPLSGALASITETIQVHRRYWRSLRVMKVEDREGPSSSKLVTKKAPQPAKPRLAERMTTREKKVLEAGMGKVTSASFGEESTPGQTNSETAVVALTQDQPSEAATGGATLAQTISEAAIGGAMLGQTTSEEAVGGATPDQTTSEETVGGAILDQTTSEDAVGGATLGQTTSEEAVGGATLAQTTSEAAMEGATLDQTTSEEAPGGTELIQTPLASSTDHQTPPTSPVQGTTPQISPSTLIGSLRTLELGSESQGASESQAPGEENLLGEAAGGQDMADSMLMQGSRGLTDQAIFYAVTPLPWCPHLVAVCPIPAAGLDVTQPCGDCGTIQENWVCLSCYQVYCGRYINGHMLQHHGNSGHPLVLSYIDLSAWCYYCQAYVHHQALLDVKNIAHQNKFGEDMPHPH
Briefly: Inhibition of HDAC6 in human A549 cells assessed as acetyl alpha-tubulin level at 2 uM incubated for 5 hrs by western blot analysis relative to control. The data set is classed as cell-based.

Data set [3] concerns the target T1, Protein deacetylase HDAC6 (Homo sapiens). Briefly: Inhibition of HDAC6 in human A549 cells assessed as acetyl alpha-tubulin level at 10 uM incubated for 5 hrs by western blot analysis relative to control. The data set is classed as cell-based. In general terms: A western blot detects proteins with antibodies after separation by electrophoresis.
For data set [4], the target named is T2, Class 1 histone deacetylase (Homo sapiens) (UniProt Q13547+O15379+Q92769+Q9BY41). Briefly: Inhibition of class 1 HDAC in human A549 cells assessed as acetyl histone H4 level at 2 uM incubated for 5 hrs by western blot analysis relative to control. The data set is classed as cell-based.
Data set [5] has as its target T2, Class 1 histone deacetylase (Homo sapiens). The experiment in a line: Inhibition of class 1 HDAC in human A549 cells assessed as acetyl histone H4 level at 10 uM incubated for 5 hrs by western blot analysis relative to control. The data set is classed as cell-based.
For data set [6], the target named is T3, Protein deacetylase HDAC6 (Homo sapiens, UniProt Q9UBN7).
T3 sequence (Q9UBN7 whole entry): T1 sequence (whole entry)
The experiment in a line: Inhibition of N-terminal GST-tagged human full length recombinant HDAC6 (1 to 1215 residues) expressed in Sf9 cells using Boc-Lys(acetyI)-AMC as substrate preincubated with enzyme for 1 hr followed by substrate addition and measured after 30 mins by fluorescence based analysis.

A further data set concerns the target Histone deacetylase 2 (Homo sapiens, UniProt Q92769). Briefly: Inhibition of C-terminal FLAG-tagged human full length recombinant HDAC2 (1 to 488 residues) expressed in Sf9 cells using Boc-Lys(acetyI)-AMC as substrate preincubated with enzyme for 1 hr followed by substrate addition and measured after 30 mins by fluorescence based analysis.
The species entered for the next data set is Homo sapiens. Briefly: Selectivity index, ratio of IC50 for inhibition of C-terminal FLAG-tagged human full length recombinant HDAC2 (1 to 488 residues) expressed in Sf9 cells to IC50 for inhibition of N-terminal GST-tagged human full length recombinant HDAC6 (1 to 1215 residues) expressed in Sf9 cells.
The target in data set [7] is T2, Class 1 histone deacetylase (Homo sapiens). The experiment in a line: Irreversible inhibition of class 1 HDAC in human A549 cells assessed as acetyl histone H4 level at 2 uM incubated for 5 hrs followed by drug wash-out for 24 hrs by western blot analysis. The data set is classed as cell-based.
Data set [8] has the same target. Briefly: Irreversible inhibition of class 1 HDAC in human A549 cells assessed as acetyl histone H4 level at 2 uM incubated for 5 hrs followed by drug wash-out for 1 hr by western blot analysis. The data set is classed as cell-based.
For data set [9] the target is unchanged. The experiment in a line: Irreversible inhibition of class 1 HDAC in human A549 cells assessed as acetyl histone H4 level at 2 uM incubated for 5 hrs followed by drug wash-out and measured immediately after drug wash-out by western blot analysis. The data set is classed as cell-based.
In data set [10] the target is T1, Protein deacetylase HDAC6 (Homo sapiens). Briefly: Irreversible inhibition of HDAC6 in human A549 cells assessed as acetyl alpha-tubulin level at 2 uM incubated for 5 hrs followed by drug wash-out for 24 hrs by western blot analysis relative to control. The data set is classed as cell-based.
For data set [11] the target is unchanged. The experiment in a line: Irreversible inhibition of HDAC6 in human A549 cells assessed as acetyl alpha-tubulin level at 2 uM incubated for 5 hrs followed by drug wash-out for 1 hr by western blot analysis relative to control. The data set is classed as cell-based.
Data set [12] shares this target. Briefly: Irreversible inhibition of HDAC6 in human A549 cells assessed as acetyl alpha-tubulin level at 2 uM incubated for 5 hrs followed by drug wash-out and measured immediately after drug wash-out by western blot analysis relative to control. The data set is classed as cell-based.
Data set [13] has the same target. The experiment in a line: Irreversible inhibition of HDAC6 in human A549 cells assessed as acetyl alpha-tubulin level at 2 uM incubated for 5 hrs followed by drug wash-out for 6 hrs by western blot analysis relative to control. The data set is classed as cell-based.
A short description of data set [14]: Effect on HDAC6 protein expression in human A549 cells assessed as change in HDAC6 protein expression at 2 uM incubated for 5 hrs followed by drug wash-out and measured following drug wash-out by western blot analysis relative to control. The data set is classed as functional.
The nature of data set [15]: Effect on HDAC6 protein expression in human A549 cells assessed as change in HDAC6 protein expression at 2 uM incubated for 5 hrs followed by drug wash-out for 1 hr by western blot analysis relative to control. The data set is classed as functional.
A short description of data set [16]: Effect on HDAC6 protein expression in human A549 cells assessed as change in HDAC6 protein expression at 2 uM incubated for 5 hrs followed by drug wash-out for 6 hrs by western blot analysis relative to control. The data set is classed as functional.
A short description of data set [17]: Effect on HDAC6 protein expression in human A549 cells assessed as change in HDAC6 protein expression at 2 uM incubated for 5 hrs followed by drug wash-out for 24 hrs by western blot analysis relative to control. The data set is classed as functional.
Data set [18] concerns the target T2, Class 1 histone deacetylase (Homo sapiens). The experiment in a line: Irreversible inhibition of class 1 HDAC in human A549 cells assessed as acetyl histone H4 level at 2 uM incubated for 5 hrs followed by drug wash-out for 6 hrs by western blot analysis. The data set is classed as cell-based.
For data set [19] the target is unchanged. The experiment in a line: Irreversible inhibition of class 1 HDAC in human A549 cells assessed as acetyl histone H3 level at 2 uM incubated for 5 hrs followed by drug wash-out and measured immediately after drug wash-out by western blot analysis. The data set is classed as cell-based.
The target is the same in data set [20]. The experiment in a line: Irreversible inhibition of class 1 HDAC in human A549 cells assessed as acetyl histone H3 level at 2 uM incubated for 5 hrs followed by drug wash-out for 1 hr by western blot analysis. The data set is classed as cell-based.
Data set [21] shares this target. The experiment in a line: Irreversible inhibition of class 1 HDAC in human A549 cells assessed as acetyl histone H3 level at 2 uM incubated for 5 hrs followed by drug wash-out for 6 hrs by western blot analysis. The data set is classed as cell-based.
For data set [22] the target is unchanged. Briefly: Irreversible inhibition of class 1 HDAC in human A549 cells assessed as acetyl histone H3 level at 2 uM incubated for 5 hrs followed by drug wash-out for 24 hrs by western blot analysis. The data set is classed as cell-based.
Data set [23] addresses T1, Protein deacetylase HDAC6 (Homo sapiens). The settings on record: A549, dose 80.0 nM, time 5.0 hrs.

The source made the active and inactive calls. The calls are words filed in the database; no cut-off is given here.

T2 sequence (O15379 whole entry, looked up): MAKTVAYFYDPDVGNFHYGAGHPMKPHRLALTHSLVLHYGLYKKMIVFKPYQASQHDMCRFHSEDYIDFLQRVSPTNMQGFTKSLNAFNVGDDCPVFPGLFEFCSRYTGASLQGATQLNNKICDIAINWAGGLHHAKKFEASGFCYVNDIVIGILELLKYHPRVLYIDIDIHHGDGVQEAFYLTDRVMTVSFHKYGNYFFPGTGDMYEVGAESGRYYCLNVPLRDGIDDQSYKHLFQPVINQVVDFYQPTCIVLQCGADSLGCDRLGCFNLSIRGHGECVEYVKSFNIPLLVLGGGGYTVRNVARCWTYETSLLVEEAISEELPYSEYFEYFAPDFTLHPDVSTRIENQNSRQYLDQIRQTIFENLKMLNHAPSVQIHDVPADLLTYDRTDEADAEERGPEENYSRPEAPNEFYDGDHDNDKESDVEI
T2 sequence (Q13547 whole entry, looked up): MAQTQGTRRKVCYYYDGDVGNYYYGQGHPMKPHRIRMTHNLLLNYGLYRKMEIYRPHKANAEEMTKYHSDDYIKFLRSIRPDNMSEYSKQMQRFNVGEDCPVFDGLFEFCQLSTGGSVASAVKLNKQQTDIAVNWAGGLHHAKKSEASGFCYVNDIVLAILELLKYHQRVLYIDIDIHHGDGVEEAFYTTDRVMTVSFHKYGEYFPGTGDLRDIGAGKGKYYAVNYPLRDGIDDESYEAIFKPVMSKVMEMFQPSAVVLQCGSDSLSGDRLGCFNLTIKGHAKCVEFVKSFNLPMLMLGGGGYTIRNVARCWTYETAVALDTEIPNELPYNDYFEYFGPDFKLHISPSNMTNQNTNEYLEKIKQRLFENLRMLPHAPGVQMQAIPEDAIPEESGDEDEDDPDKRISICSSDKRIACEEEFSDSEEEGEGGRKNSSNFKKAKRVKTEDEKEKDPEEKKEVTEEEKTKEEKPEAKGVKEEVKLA
T2 sequence (Q92769 whole entry, looked up): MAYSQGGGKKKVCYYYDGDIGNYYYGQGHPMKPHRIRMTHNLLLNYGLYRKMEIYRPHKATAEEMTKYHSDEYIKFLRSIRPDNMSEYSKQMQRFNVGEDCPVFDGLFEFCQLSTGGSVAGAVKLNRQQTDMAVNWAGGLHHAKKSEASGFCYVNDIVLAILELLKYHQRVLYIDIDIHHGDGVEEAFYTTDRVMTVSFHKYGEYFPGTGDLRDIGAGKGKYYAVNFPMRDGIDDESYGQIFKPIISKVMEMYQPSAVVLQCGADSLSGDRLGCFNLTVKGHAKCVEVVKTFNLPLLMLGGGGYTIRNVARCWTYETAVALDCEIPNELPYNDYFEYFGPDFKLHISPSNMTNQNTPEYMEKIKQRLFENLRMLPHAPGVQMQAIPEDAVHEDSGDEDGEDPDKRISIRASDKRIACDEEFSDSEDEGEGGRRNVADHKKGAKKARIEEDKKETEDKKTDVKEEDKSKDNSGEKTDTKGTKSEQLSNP
T2 sequence (Q9BY41 whole entry, looked up): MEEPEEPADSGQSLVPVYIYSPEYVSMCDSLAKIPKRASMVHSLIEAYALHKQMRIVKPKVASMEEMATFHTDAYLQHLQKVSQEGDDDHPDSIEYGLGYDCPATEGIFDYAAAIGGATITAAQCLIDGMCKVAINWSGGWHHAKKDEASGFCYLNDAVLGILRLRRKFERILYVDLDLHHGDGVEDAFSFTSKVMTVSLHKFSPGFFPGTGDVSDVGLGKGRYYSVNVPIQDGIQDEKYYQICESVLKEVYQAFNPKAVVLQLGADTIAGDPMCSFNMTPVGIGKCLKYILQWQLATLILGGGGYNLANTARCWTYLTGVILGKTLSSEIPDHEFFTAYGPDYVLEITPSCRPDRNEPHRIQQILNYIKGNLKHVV
Chain of Histone deacetylase 2 (Q92769 whole entry, the tested form may be a part): as the sequence (Q92769 whole entry, looked up) above

On to `O=C(NO)c1ccc(COc2nonc2S(=O)(=O)c2ccccc2)cc1`, for which the IC50 (in general, the concentration that gives 50% inhibition) with RPMI-8226 was 6.1 µM; with U-266, over 10 µM; in the data set on MM1.S, 6.4 µM. Moreover, the IC50 at 48 h in data set [1] was over 30 µM.

For the compound `O=S(=O)(c1ccccc1)c1c(OCCCCCCO)no[n+]1[O-]`, the fold change (FC) in [2] came out at 1.3; in data set [3], 1.2; in data set [4], 1.3; in [5] it was 0.8.

Turning to `O=C(/C=C/COc1no[n+]([O-])c1S(=O)(=O)c1ccccc1)NO`, the fold change (FC) in data set [2] came to 0.8; in data set [4], 0.5. For the same compound, the IC50 was 10.4 µM in data set [6] and 6.6 µM on Histone deacetylase 2. In the data set listed under Homo sapiens, the Ratio IC50 was found to be 0.6.

As for `O=C(NO)c1ccc(Oc2no[n+]([O-])c2S(=O)(=O)c2ccccc2)cc1`, the fold change (FC) in data set [7] was 0.6; in data set [8] it was 1.6; in [9], 1; in [10], 2.2; in [11] it was 4.4; in [12], 3.9. The fold change (FC) came out at 2.1 in data set [2]; 0.5 in data set [4]; 3.7 in data set [13]; 0.9 in [14]; 1.1 in data set [15]; 1.1 in data set [16]. The “fold change (FC)” value amounted to 1.2 in [17]; 0.9 in [18]; 1.1 in data set [19]; 1.2 in data set [20]; 0.9 in data set [21]; 0.7 in [22]. Besides, the IC50 in data set [6] worked out at 0.16 µM; on Histone deacetylase 2, 3.4 µM; in the data set on RPMI-8226, 1.2 µM; with U-266, 1.3 µM; with MM1.S, 1.1 µM. Moreover, the Ratio IC50 in the data set listed under Homo sapiens was 21.3. For the same compound, in data set [1], the IC50 at 48 h turned out to be 14.3 µM.

With `O=C(CCCCCOc1no[n+]([O-])c1S(=O)(=O)c1ccccc1)NO`, the fold change (FC) came to 1.8 in [7]; 4.7 in data set [8]; 4.4 in data set [9]; 2.5 in data set [10]; 2.2 in [11]; 2 in data set [12]. Besides, the fold change (FC) in [2] was 3.8; in [4], 2.1. In addition, the IC50 in data set [6] stood at 0.047 µM; with RPMI-8226, 0.48 µM; with U-266, 0.69 µM; in the data set with MM1.S it was 0.43 µM. Moreover, the IC50 at 48 h in data set [1] was 8.7 µM.

For the compound `COc1cc(C(=O)NO)ccc1Oc1no[n+]([O-])c1S(=O)(=O)c1ccccc1`, the figures for the fold change (FC) in data set [2] and in data set [4] were 1.3 and 0.4, respectively. Moreover, the IC50 in data set [6] is 2.7 µM; at Histone deacetylase 2, 5.3 µM. In the data set listed under Homo sapiens, the Ratio IC50 worked out at 2.

Turning to `O=C(NO)c1cccc(Oc2no[n+]([O-])c2S(=O)(=O)c2ccccc2)c1`, the fold change (FC) in data set [2] amounted to 1.1; in data set [4], 0.2. Also, the IC50 in data set [6] amounted to 39.2 µM; at Histone deacetylase 2, 8.1 µM. In addition, in the data set listed under Homo sapiens, the Ratio IC50 was 0.2.

Turning to `O=S(=O)(c1ccccc1)c1c(OCc2ccc(CO)cc2)no[n+]1[O-]`, the results for the IC50 with RPMI-8226, with U-266 and with MM1.S were 1.1 µM, 1.5 µM and 0.91 µM, respectively. Further, the IC50 at 48 h in data set [1] worked out at 8.4 µM.

On to `CN1CCc2c(c3ccccc3n2Cc2ccc(C(=O)NO)cc2)C1`, for which the inhibition entry in [23] is “Active”.

On to `O=C(/C=C/c1ccc(Oc2no[n+]([O-])c2S(=O)(=O)c2ccccc2)cc1)NO`, for which the fold change (FC) in [2] is 2.7; in data set [4], 1.7. Moreover, the IC50 in [6] stood at 0.31 µM; at Histone deacetylase 2 it was 1 µM. Also, in the data set listed under Homo sapiens, the Ratio IC50 was 3.2.
